Data published in the supplement of paper PMC10307832.

What was measured:
Assay in all cases: relative viability (nuclei count vs DMSO), 5 days (fraction); higher = more cells survive
[1] = compound: COc1cc2ncn(-c3cc(OCc4ccccc4C(F)(F)F)c(C(N)=O)s3)c2cc1OC + Nc1ncn([C@H]2C[C@H](O)[C@@H](CO)O2)c(=O)n1 [Decitabine] (partner 2 µM)
Outline: (§1)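 Lung cancer cell lines were pin-tool dosed in 1536-well plates on the day after seeding, with either a lone drug or a fixed anchor-drug dose plus five library-drug doses (not always all listed) in √10 steps. Nuclei were counted on 4× images after 5 days. Relative viability is the ratio of treated-well to vehicle-well nuclei counts, with each value a median of duplicate plates.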

[2] = compound: COc1cc2ncn(-c3cc(OCc4ccccc4C(F)(F)F)c(C(N)=O)s3)c2cc1OC + C[C@@H](Oc1cc(-c2cnn(C3CCNCC3)c2)cnc1N)c1c(Cl)ccc(F)c1Cl [Crizotinib] (partner 1 µM)
Outline: as §1

[3] = compound: COc1cc2ncn(-c3cc(OCc4ccccc4C(F)(F)F)c(C(N)=O)s3)c2cc1OC + N=C(N)NC(=N)NCCc1ccccc1 [Phenformin] (partner 250 µM)
Outline: as §1

[4] = compound: COc1cc2ncn(-c3cc(OCc4ccccc4C(F)(F)F)c(C(N)=O)s3)c2cc1OC + CC1(C)CCC(c2ccc(Cl)cc2)=C(CN2CCN(c3ccc(C(=O)NS(=O)(=O)c4ccc(N[C@H](CCN5CCOCC5)CSc5ccccc5)c(S(=O)(=O)C(F)(F)F)c4)cc3)CC2)C1 [Navitoclax] (partner 0.5 µM)
Outline: as §1

Cell Line	relative viability ([1]; first compound 0.05 µM)	relative viability ([1]; first compound 0.1581 µM)	relative viability ([1]; first compound 0.5 µM)	relative viability ([1]; first compound 1.581 µM)	relative viability ([1]; first compound 5 µM)	relative viability ([2]; first compound 0.05 µM)	relative viability ([2]; first compound 0.1581 µM)	relative viability ([2]; first compound 0.5 µM)	relative viability ([2]; first compound 1.581 µM)	relative viability ([2]; first compound 5 µM)	relative viability ([3]; first compound 0.05 µM)	relative viability ([3]; first compound 0.1581 µM)	relative viability ([3]; first compound 0.5 µM)	relative viability ([3]; first compound 1.581 µM)	relative viability ([3]; first compound 5 µM)	relative viability ([4]; first compound 0.05 µM)	relative viability ([4]; first compound 0.1581 µM)	relative viability ([4]; first compound 0.5 µM)	relative viability ([4]; first compound 1.581 µM)	relative viability ([4]; first compound 5 µM)
NCI-H727	1.03	0.927	0.825	0.616	0.568	0.707	0.901	0.58	0.247	0.266	0.652	0.432	0.372	0.363	0.399	0.457	0.618	0.464	0.166	0.185
NCI-H838	0.401	0.426	0.328	0.169	0.135	1.02	0.932	0.492	0.124	0.111	0.72	0.61	0.324	0.139	0.0964	1.2	1.23	0.733	0.15	0.135
NCI-H1355	0.29	0.333	0.282	0.187	0.169	1.08	1.03	0.768	0.258	0.157	0.453	0.434	0.358	0.17	0.161	1.04	0.914	0.536	0.177	0.136
NCI-H1437	0.564	0.561	0.34	0.266	0.272	1.03	0.812	0.659	0.164	0.101	0.352	0.223	0.117	0.123	0.12	1.13	1.07	0.151	0.13	0.119
NCI-H1650	0.396	0.382	0.329	0.219	0.138	1.03	1.03	0.765	0.17	0.194	0.389	0.341	0.175	0.129	0.179	1.29	1.2	0.471	0.153	0.121
NCI-H1651	0.619	0.64	0.463	0.192	0.263	0.9	0.84	0.775	0.631	0.332	0.318	0.304	0.132	0.102	0.117	1.12	1.24	0.835	0.0858	0.0692
NCI-H1666	0.749	0.719	0.693	0.501	0.424	0.917	0.913	0.606	0.289	0.326	0.591	0.554	0.337	0.315	0.299	0.814	1.05	0.308	0.225	0.205
NCI-H1734	0.382	0.588	0.469	0.214	0.157	0.656	0.616	0.36	0.239	0.14	0.417	0.329	0.322	0.18	0.121	0.824	0.806	0.35	0.133	0.0981
NCI-H1755	0.702	0.682	0.716	0.57	0.397	0.829	0.828	0.644	0.389	0.334	0.572	0.622	0.531	0.319	0.243	1.04	0.957	0.653	0.222	0.183
NCI-H1792	0.503	0.65	0.411	0.0575	0.0384	1.05	0.937	0.752	0.459	0.0845	0.324	0.279	0.256	0.0695	0.0567	0.633	0.627	0.604	0.188	0.13
NCI-H1915	0.249	0.261	0.228	0.143	0.0992	0.916	0.898	0.639	0.123	0.102	0.373	0.361	0.286	0.0964	0.0866	0.758	0.739	0.539	0.0643	0.0409
NCI-H1944	0.468	0.465	0.399	0.235	0.153	1.32	1.18	1.1	0.351	0.113	0.211	0.234	0.174	0.106	0.0856	1.04	1.06	0.785	0.189	0.123
NCI-H1975	0.359	0.302	0.27	0.153	0.142	1.04	0.913	0.462	0.212	0.2	0.44	0.392	0.229	0.162	0.113	0.88	1.01	0.529	0.168	0.174
NCI-H1993	0.448	0.631	0.506	0.364	0.413	0.898	0.877	0.693	0.58	0.614	0.474	0.527	0.5	0.495	0.428	1.22	0.912	0.602	0.507	0.503
NCI-H2009	0.344	0.301	0.259	0.197	0.17	1.01	0.825	0.445	0.208	0.253	0.436	0.333	0.192	0.124	0.111	1.14	1.07	0.666	0.0806	0.0608
NCI-H2023	0.203	0.213	0.159	0.0779	0.0772	0.605	0.67	0.424	0.138	0.0906	0.328	0.395	0.229	0.0904	0.0857	0.977	1.1	0.867	0.0884	0.0956
